In PubChem BioAssay AID449762 (Southern Research Specialized Biocontainment Screening …, 2010) one finds IC50 and IC90 data, which are given here for 72 compounds.

Results filed as inconclusive are left out.

This experiment has as its system M. tuberculosis H37Rv growth inhibition, 7H9 media. The experiment in a line: M. tuberculosis growth inhibition, HTS (AID 449762).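 On all read-outs here: bacterial growth assessed after seven days of incubation.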 The note with it: for IC90: measured here: IC90 growth inhibition.

With `C#CCOCCOCCOCCNc1nc(N2CCN(C(=O)C(Cc3ccc(O)cc3)n3cc(C(N)CC(C)C)nn3)CC2)nc(N2CCN(C(=O)C(Cc3cc4ccccc4[nH]3)n3cc(C(N)Cc4ccc(O)cc4)nn3)CC2)n1` (stereo not given), the IC50 was 6.03 µM and the IC90 worked out at 6.93 µM.

Regarding `COc1ccc(C(=O)/C=C/c2cc(OC)c(O)c(OC)c2)c(F)c1`, the IC50 is 34.6 µM and the IC90 is 67 µM. On the same counts, the results for `Cc1ccc(NC(=S)N(CCCN2CCCC2)Cc2cccn2Cc2ccc(Cl)cc2)cc1C` are 86 µM and above 100 µM. For `COc1c(C)cc(C(=O)C2CCCN(Cc3ccccn3)C2)cc1C` (stereo not given), in that order: 5.8 µM and above 100 µM. In the case of `C/C(CC(=O)Nc1ccc2c(c1)OCCO2)=N\NC(=O)c1ccccc1F`, the IC50 is 6.94 µM and the 90% effect concentration (IC90) is above 100 µM. On the same counts, the results for `COc1cc2c(cc1NC(=O)CN1C(=O)NC3(CCc4ccccc43)C1=O)oc1ccccc12` (stereo not given) are 29.5 µM and above 100 µM. On the same counts, the results for `CCCCCCOC(=O)C(C#N)c1nc2ccccc2nc1N1CCN(CC)CC1` (stereo not given) are 20.1 µM and 29.7 µM.

In the case of `CC(C)CNC(=S)NC(=O)c1csc([N+](=O)[O-])c1`, the IC50 was 6.74 µM and the IC90 turned out to be 15.1 µM. On the same counts, the results for `Oc1ccc(C[C@H]2CNCCN2CCCCC2CCCCC2)cc1` are 31.5 µM and 59.2 µM. On the same counts, the results for `N#C/C(=N/Nc1ccc(OC(F)(F)F)cc1)C(N)=S` are 2.14 µM and 3.43 µM. For `COc1ccc(CNC(=O)c2c(N)n(CCCN3CCOCC3)c3nc4ccccc4nc23)cc1`, in that order: 94 µM and above 100 µM.

Take `Cc1cc(-c2cc(-c3ccccc3)on2)nc(NC2CCCC2)n1`: the IC50 was 45.8 µM and the IC90 came out at 53.9 µM.

Turning to `CNc1nc(SCc2ccccc2Cl)nc2c1CCCC2`, the IC50 is 0.73 µM and the IC90 was 2.52 µM. `O=C(CCl)Nc1sccc1C(=O)c1ccccc1`: the IC50 was below 0.2 µM and the IC90 was determined as 1.22 µM. On the same counts, the results for `Cc1c2c(nc3ccccc13)CCC(C)C2` (stereo not given) are 33.8 µM and 61.8 µM. On the same counts, the results for `O=C(OCc1ccc([N+](=O)[O-])cc1)c1cc2ccccc2oc1=O` are 7.82 µM and 23.6 µM.

In the case of `COc1cc2c(-c3ccc4[nH]ccc4c3)c(-c3ccc(C#N)cc3)oc(=O)c2cc1OC`, the IC90 was above 100 µM.

On to `Cc1ccc(CN2CCC(c3cc(-c4ccc(Cl)cc4)n[nH]3)CC2)cc1`, for which the concentration for half-maximal inhibition (IC50) is 11.6 µM and the IC90 stood at 14.8 µM. Consider `O=c1c2ccccc2nc(/C=C/c2ccccc2)n1-c1ccc(O)cc1`, for which the IC90 is above 100 µM. With `COc1ccc(C(CC(=O)c2ccccc2)S(=O)(=O)c2ccc(C)cc2)cc1` (stereo not given), the concentration for half-maximal inhibition (IC50) is 20.2 µM and the IC90 is 29.4 µM. On the same counts, the results for `CCN(CC)C(=O)Oc1ccc2c(=O)c(-c3ccc(OC)cc3)coc2c1` are 28.5 µM and above 100 µM. On the same counts, the results for `COC(OC)c1ccnc(-c2ccc(OC(=O)c3cccs3)cc2)n1` are 62.4 µM and above 100 µM. For `Cc1ccc(NC(=O)C2C3/C=C\CCCCC32)cc1C` (stereo not given), in that order: 2.87 µM and 3.29 µM.

`CCOC(=O)c1sc2nc(C)nc(SC(C)C(=O)N(C)c3ccccc3)c2c1C` (stereo not given): the IC50 is 35.1 µM and the IC90 amounted to 46.5 µM. On the same counts, the results for `O=C(CCSc1ccccn1)c1ccccc1` are 10.2 µM and 19.1 µM. On the same counts, the results for `N#Cc1nc(-c2ccc(OCc3ccccc3)cc2)oc1NCCCn1ccnc1` are 26.7 µM and 35.5 µM.

Consider `O=C(CCl)c1ccc2c(c1)CCN2C(=O)C1CCCCC1`, for which the IC50 was 16.7 µM and the IC90 is above 100 µM. For the compound `COc1ccc(-c2cc3nc(CCl)[nH]c(=O)c3s2)cc1`, the IC50 is 0.88 µM and the IC90 worked out at 14.5 µM. On the same counts, the results for `CCc1ccc2nc(N3C(=O)C(O)=C(C(=O)c4ccco4)C3c3cccs3)sc2c1` (stereo not given) are 83.2 µM and 92.3 µM. On the same counts, the results for `COC(=O)c1cc(/C=C/c2ccccc2)on1` are 16.9 µM and above 100 µM. On the same counts, the results for `COc1ccccc1C1CC(c2c(-c3ccccc3)c3cc(Cl)ccc3[nH]c2=O)=NN1S(C)(=O)=O` (stereo not given) are 93.7 µM and above 100 µM. With `O=C(O)C1CC=CCC1C(=O)N1CCN(c2nc(-c3ccccc3Cl)c3cc(Br)ccc3n2)CC1` (stereo not given), the IC50 was 46.4 µM and the 90% effect concentration (IC90) came to 78.5 µM. As for `Cc1cc(Nc2ccccc2)c2c([N+](=O)[O-])ccc(C)c2n1`, the IC50 was 94.4 µM and the IC90 is above 100 µM.

As to `CCOc1cc2c3c(c1)C1(C(=O)N3C(C)(C)CC2C)C(C#N)=C(N)N2C(=C1C#N)Nc1ccccc12` (stereo not given), the IC50 was 22.4 µM and the IC90 is above 100 µM. Take `CN1CCN2c3ccccc3Cc3ccccc3C2C1` (stereo not given): the IC50 was 42.8 µM and the IC90 was above 100 µM. For `CSCCC1NC(=O)N(CC(=O)N2N=C(c3ccc(Cl)cc3)CC2c2ccco2)C1=O` (stereo not given), in that order: 10.5 µM and 16 µM. Take `COc1ccc(-n2nc3c(c2NC(=O)CCl)CSC3)cc1`: the IC50 was 4.85 µM and the concentration for an effect of 90% (IC90) came out at 9.39 µM. For `O=C1NN(c2ccc(Br)cc2)C(=O)/C1=C\c1ccc(O)cc1O`, in that order: 88.2 µM and above 100 µM. Regarding `Cc1ccc(S(=O)(=O)/N=C(\CCl)N2CCOCC2)cc1`, the IC50 was 6.44 µM and the IC90 was found to be 14.9 µM. For `c1ccc(-c2nc(N3CCCC3)nc3ccccc23)cc1`, in that order: 37.5 µM and 51.8 µM. On the same counts, the results for `CCC(C)(C)c1ccc(OCCCC[n+]2ccc(C)cc2)c(C(C)(C)CC)c1` are 10.2 µM and 15 µM.

For the compound `Cc1nc2scc(-c3cccs3)c2c(=O)n1-n1cccc1`, the IC50 was 56.1 µM and the IC90 is above 100 µM. In turn, `CCCCNC(=O)Nc1nnc(-c2ccc(OCC)cc2)o1` gave an IC90 above 100 µM. In the case of `CN1OC(COC(=O)c2ccc(Cl)cc2Cl)CC1c1ccccc1` (stereo not given), the half-maximal inhibitory concentration (IC50) is 2.43 µM and the IC90 was 16.3 µM.

Regarding `CC1CC(C)CN(C(=O)C2CCC(CNc3c(N4CCCCC4)c(=O)c3=O)CC2)C1` (stereo not given), the IC50 is 19.3 µM and the IC90 was determined as 71.7 µM. On the same counts, the results for `COC(=O)CSc1nnc([C@H](CC(C)C)NC(=O)OC(C)(C)C)o1` are 14.5 µM and 32.9 µM. On the same counts, the results for `Cc1cc(N2CCN(c3ccc(C(F)(F)F)cc3[N+](=O)[O-])CC2)c2ccccc2n1` are 21.4 µM and 23.7 µM. On the same counts, the results for `C/C(=N/NC(=O)c1ccccn1)c1c[nH]c2ccccc12` are 6.03 µM and 11.8 µM. With `COc1cc(/C=C(\C#N)c2nc3c(s2)CC(C)CC3)ccc1O` (stereo not given), the 50% inhibitory concentration (IC50) is 31.5 µM and the IC90 is 63.5 µM. For `CC(C)(C)c1ccc(C(=O)NNc2cc(N3CCCCC3)nc(N3CCCCC3)n2)cc1`, the IC50 was 60.6 µM and the IC90 was 74.8 µM.

Take `COc1ccc(-c2c(-c3cc(OC)cc(OC)c3)n(C)c3ccc(-c4ccn[nH]4)cc23)cc1`: the IC90 was above 100 µM. On to `CCOc1cccc2cc(C(=O)Nc3nccs3)c(=O)oc12`, for which the IC50 was 0.34 µM and the IC90 is 29.6 µM. On to `CCN1C(=NCCc2ccc(Br)cc2)N[C@@H](c2ccccc2)[C@H](C(=O)OC)[C@H]1C`, for which the IC50 was 16.7 µM and the IC90 was determined as 22.1 µM.

For `Cc1ccnc(N2CCC(C(=O)Nc3cccc(C(F)(F)F)c3)CC2)n1`, the IC50 is 47.5 µM and the IC90 is above 100 µM. For `COc1ccccc1N(C)S(=O)(=O)c1ccc(C(=O)Nc2ccc3nc(C)sc3c2)cc1`, in that order: 58.2 µM and above 100 µM. On the same counts, the results for `CN(Cc1ccc(Br)cc1)C(=O)CCN1C(=O)c2cccc([N+](=O)[O-])c2C1=O` are 29.1 µM and above 100 µM. On the same counts, the results for `Cc1ccsc1/C=C1\SC(N2CCOCC2)=NC1=O` are 21.9 µM and 34.1 µM.

Regarding `O=C(O)c1ccc(N2C(=O)/C(=C/c3ccc(-c4ccc([N+](=O)[O-])cc4)o3)C=C2c2ccccc2)cc1`, the IC50 was 17.2 µM and the IC90 came out at 40.2 µM. In the case of `c1ccc(-c2nc3c(ccc4ccccc43)[nH]2)nc1`, the IC50 is 6.75 µM and the IC90 was 20.3 µM. On the same counts, the results for `COc1cc(CNCCc2ccccc2)cc(Cl)c1OCc1ccccc1` are 22.3 µM and 24.9 µM. On the same counts, the results for `Cc1ccc(C)c(N2CCN(C(=O)c3ccc4nc(N5CCOCC5)sc4c3)CC2)c1` are 37.6 µM and 47.4 µM.

Consider `O=C(CCC(=O)OCc1ccc(C(=O)Oc2ccc(Cl)cc2)cc1)Nc1ccccc1`, for which the IC50 was 16.4 µM and the IC90 is 44 µM. On the same counts, the results for `COc1ccc(NCc2nc3ccccc3n2CCOc2ccccc2)cc1` are 44.8 µM and 50.6 µM.

With `Cc1cc2c(cc1C)/C(=N/NC(=O)c1ccccn1)CCC2`, the IC50 was 7.91 µM and the IC90 was found to be 23.2 µM. On the same counts, the results for `O=C1/C(=N\S(=O)(=O)c2cccs2)C([n+]2ccc(CCCc3ccccc3)cc2)=C([O-])c2ccccc21` are 18.2 µM and 22.1 µM. On to `Ic1ccccc1CN[C@@H]1C2CCN(CC2)[C@@H]1C(c1ccccc1)c1ccccc1`, for which the IC50 is 29.5 µM and the IC90 worked out at 38.4 µM. On the same counts, the results for `COc1ccccc1-n1cc2c([N+](=O)[O-])cc([N+](=O)[O-])cc2n1` are below 0.2 µM and 3.18 µM. For `O=C(CCN1C(=O)/C(=C/c2ccccc2)SC1=S)Nc1ccccn1`, in that order: 89.9 µM and above 100 µM.

With `COc1cccc(Nc2ccc([N+](=O)[O-])c3nonc23)c1`, the IC50 was 9.43 µM and the IC90 was 13.6 µM. For `CCOC(=O)c1cnc2ccc(OCC)cc2c1N1CCN(c2ccccc2)CC1`, the IC50 was 27.1 µM and the IC90 was above 100 µM. On the same counts, the results for `COc1ccc(/C=N/OCC(=O)OCC(=O)N(C)c2ccccc2)cc1` are 8.22 µM and 39.1 µM. As to `CCC1C(c2ccccc2)N(C)C(c2ccccc2)CC1(O)c1ccccc1` (stereo not given), the IC50 is 23.2 µM and the IC90 worked out at 25.5 µM.
